One assay concerns the target SYK (human) (UniProt P43405). Kind of assay: KINOMEscan competition binding. The note with it: compound 10.0 µM.
For another assay, the target named is CAMK1 (human) (UniProt Q14012). The assay is described as follows: KINOMEscan competition binding. As to conditions: compound 10.0 µM.
Another assay concerns the target MARK3 (human) (UniProt P27448). Kind of assay: KINOMEscan competition binding. The note with it: compound 10.0 µM.
The target of another assay is PRKG1 (human) (UniProt Q13976). Kind of assay: KINOMEscan competition binding. The note with it: compound 10.0 µM.
For another assay, the target named is DYRK1A (human) (UniProt Q13627). Kind of assay: KINOMEscan competition binding.
The next assay has as its target ALK (human) (UniProt Q9UM73). Kind of assay: KINOMEscan competition binding. The note with it: compound 10.0 µM.
For assay [1], the system named is ABL1 (human), P00519 [M351T]. The assay is described as follows: KINOMEscan competition binding. The note with it: compound 10.0 µM.
The target of another assay is ERBB2 (human) (UniProt P04626). Kind of assay: KINOMEscan competition binding. The note with it: compound 10.0 µM.
Assay [2] has as its target HIPK2 (human) (UniProt Q9H2X6). The assay is described as follows: KINOMEscan competition binding.
Another assay deals with TYRO3 (human) (UniProt Q06418). Kind of assay: KINOMEscan competition binding. As to conditions: compound 10.0 µM.
Chain of TYRO3 (human) (Q06418 whole entry, looked up): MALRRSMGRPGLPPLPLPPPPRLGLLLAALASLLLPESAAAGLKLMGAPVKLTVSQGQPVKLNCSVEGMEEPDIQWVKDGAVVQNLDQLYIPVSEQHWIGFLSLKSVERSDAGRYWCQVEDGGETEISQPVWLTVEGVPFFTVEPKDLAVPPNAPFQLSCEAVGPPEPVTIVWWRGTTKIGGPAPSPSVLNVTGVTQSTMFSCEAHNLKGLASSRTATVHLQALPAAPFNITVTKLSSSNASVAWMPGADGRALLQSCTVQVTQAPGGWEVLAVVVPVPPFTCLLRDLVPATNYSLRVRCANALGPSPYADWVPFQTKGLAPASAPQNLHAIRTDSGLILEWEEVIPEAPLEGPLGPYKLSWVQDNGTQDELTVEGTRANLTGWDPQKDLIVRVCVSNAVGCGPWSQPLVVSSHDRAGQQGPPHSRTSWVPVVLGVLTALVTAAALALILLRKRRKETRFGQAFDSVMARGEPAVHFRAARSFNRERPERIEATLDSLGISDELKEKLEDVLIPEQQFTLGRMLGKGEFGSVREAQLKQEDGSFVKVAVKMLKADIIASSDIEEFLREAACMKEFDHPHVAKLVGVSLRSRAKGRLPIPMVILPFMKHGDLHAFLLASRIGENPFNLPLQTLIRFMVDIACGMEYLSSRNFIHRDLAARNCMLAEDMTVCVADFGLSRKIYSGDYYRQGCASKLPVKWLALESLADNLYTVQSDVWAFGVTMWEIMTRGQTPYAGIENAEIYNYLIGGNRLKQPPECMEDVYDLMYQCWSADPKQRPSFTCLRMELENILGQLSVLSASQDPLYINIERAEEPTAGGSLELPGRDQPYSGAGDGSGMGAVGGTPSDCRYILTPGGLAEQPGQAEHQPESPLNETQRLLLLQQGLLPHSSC
A further assay deals with MUSK (human) (UniProt O15146). Kind of assay: KINOMEscan competition binding. As to conditions: compound 10.0 µM.
Chain of MUSK (human) (O15146 whole entry, looked up): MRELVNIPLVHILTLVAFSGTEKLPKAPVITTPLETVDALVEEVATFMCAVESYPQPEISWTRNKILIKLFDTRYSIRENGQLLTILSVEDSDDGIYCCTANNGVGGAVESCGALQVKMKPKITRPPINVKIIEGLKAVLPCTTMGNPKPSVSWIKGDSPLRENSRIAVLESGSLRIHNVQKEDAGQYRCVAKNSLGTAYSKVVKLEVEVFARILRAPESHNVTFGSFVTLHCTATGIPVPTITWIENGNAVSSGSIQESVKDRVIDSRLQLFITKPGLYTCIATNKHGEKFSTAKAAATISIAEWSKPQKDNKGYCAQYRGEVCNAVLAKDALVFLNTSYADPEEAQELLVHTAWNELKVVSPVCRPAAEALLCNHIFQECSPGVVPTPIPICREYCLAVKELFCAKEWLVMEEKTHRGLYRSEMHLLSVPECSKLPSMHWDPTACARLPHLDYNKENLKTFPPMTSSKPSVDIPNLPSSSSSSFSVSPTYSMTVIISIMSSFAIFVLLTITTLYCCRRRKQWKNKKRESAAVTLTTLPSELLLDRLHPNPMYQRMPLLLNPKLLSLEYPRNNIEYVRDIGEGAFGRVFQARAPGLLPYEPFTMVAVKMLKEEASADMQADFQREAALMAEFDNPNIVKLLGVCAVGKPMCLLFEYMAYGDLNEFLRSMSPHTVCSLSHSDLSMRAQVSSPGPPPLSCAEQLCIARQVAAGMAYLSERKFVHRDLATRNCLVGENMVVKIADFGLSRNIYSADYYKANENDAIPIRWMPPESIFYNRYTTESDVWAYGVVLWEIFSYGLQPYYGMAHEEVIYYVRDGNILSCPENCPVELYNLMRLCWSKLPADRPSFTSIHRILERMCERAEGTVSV
The target in another assay is BRSK1 (human) (UniProt Q8TDC3). The assay is described as follows: KINOMEscan competition binding. As to conditions: compound 10.0 µM.
Chain of BRSK1 (human) (Q8TDC3 whole entry, looked up): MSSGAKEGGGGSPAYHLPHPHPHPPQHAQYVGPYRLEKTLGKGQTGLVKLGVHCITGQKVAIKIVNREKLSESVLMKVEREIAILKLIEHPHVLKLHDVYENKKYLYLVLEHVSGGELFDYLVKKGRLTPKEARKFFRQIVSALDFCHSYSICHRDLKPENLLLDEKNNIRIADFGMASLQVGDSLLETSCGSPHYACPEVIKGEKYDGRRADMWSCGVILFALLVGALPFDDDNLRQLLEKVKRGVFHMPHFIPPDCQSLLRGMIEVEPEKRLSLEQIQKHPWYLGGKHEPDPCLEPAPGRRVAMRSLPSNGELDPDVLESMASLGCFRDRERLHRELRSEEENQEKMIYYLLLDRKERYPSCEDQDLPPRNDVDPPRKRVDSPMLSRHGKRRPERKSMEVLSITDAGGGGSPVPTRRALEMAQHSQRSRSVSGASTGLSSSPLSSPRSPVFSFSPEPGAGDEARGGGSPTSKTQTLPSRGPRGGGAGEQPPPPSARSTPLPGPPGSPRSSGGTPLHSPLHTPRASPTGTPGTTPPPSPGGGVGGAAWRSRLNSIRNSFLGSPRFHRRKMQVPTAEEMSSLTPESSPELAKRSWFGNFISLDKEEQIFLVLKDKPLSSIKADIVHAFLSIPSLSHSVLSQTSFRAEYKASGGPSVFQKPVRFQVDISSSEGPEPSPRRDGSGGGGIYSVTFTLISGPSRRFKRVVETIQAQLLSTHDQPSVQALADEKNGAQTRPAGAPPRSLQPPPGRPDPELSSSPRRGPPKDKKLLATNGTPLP
A further assay has as its target FRK (human) (UniProt P42685). The assay is described as follows: KINOMEscan competition binding. The note with it: compound 10.0 µM.
In the next assay the target is BLK (human) (UniProt P51451). The assay is described as follows: KINOMEscan competition binding. The note with it: compound 10.0 µM.
The target of the next assay is DYRK2 (human) (UniProt Q92630). The assay is described as follows: KINOMEscan competition binding.
Assay [3] deals with EGFR (human), P00533 [752-759 del]. Kind of assay: KINOMEscan competition binding. The note with it: compound 10.0 µM.
Chain of EGFR (human), P00533 [752-759 del] (P00533 whole entry, looked up, stated change not applied): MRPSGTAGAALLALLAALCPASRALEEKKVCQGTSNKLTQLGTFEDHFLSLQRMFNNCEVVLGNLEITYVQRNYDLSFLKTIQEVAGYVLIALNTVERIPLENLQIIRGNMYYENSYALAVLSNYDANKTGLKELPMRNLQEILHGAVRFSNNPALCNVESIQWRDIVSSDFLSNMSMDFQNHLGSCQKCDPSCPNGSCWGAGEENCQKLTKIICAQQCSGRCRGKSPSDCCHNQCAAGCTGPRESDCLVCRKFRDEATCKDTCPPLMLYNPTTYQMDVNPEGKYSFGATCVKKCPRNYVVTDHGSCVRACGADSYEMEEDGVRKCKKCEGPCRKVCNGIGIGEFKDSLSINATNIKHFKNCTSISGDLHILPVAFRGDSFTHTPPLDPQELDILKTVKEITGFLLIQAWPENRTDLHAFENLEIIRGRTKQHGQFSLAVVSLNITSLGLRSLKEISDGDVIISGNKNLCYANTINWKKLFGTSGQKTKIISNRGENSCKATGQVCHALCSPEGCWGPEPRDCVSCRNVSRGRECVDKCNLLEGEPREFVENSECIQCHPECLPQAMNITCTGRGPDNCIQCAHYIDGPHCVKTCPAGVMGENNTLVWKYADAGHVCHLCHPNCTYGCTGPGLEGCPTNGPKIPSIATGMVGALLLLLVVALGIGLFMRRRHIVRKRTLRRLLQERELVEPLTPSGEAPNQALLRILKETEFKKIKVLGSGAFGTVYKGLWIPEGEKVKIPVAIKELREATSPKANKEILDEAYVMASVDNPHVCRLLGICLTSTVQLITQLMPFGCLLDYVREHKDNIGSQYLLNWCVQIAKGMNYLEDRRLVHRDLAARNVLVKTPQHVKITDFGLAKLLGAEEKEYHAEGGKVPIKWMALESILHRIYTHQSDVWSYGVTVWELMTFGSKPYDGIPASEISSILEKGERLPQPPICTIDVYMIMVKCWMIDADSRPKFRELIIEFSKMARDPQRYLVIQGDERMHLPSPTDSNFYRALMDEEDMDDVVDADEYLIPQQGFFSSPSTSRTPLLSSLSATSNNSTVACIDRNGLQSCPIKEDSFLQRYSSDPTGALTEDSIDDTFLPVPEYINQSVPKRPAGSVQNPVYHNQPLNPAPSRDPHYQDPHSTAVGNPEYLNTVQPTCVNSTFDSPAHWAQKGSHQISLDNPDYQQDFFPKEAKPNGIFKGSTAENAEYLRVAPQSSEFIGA
Another assay addresses TNNI3K (human) (UniProt Q59H18). Kind of assay: KINOMEscan competition binding. The note with it: compound 10.0 µM.
For assay [4], the target named is HIPK2 (human) (UniProt Q9H2X6). The assay is described as follows: SelectScreen, TR FRET. (TR-FRET usually uses a lanthanide donor and a delayed reading to cut background.)
The next assay deals with HIPK1 (human) (UniProt Q86Z02). The assay is described as follows: SelectScreen, TR FRET.
Another assay addresses BRAF (human) (UniProt P15056). The assay is described as follows: KINOMEscan competition binding. As to conditions: compound 10.0 µM.
The subject of assay [5] is BRAF (human), P15056 [V600E]. The assay is described as follows: KINOMEscan competition binding. As to conditions: compound 10.0 µM.
In the next assay the target is AURKC (human) (UniProt Q9UQB9). The assay is described as follows: SelectScreen, TR FRET.
Chain of AURKC (human) (Q9UQB9 whole entry, looked up): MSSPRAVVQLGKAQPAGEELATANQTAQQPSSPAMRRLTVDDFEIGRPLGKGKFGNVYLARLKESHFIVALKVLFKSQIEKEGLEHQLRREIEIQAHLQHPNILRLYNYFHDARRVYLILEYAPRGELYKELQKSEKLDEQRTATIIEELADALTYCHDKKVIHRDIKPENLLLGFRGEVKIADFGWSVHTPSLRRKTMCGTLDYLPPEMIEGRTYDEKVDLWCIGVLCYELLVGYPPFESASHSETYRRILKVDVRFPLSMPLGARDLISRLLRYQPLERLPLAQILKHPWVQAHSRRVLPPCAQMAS
In the next assay the target is AURKB (human) (UniProt Q96GD4). Kind of assay: SelectScreen, TR FRET.

pIC50, pKd: −log10 of the molar value.

Chain of CAMK1 (human) (Q14012 whole entry, looked up): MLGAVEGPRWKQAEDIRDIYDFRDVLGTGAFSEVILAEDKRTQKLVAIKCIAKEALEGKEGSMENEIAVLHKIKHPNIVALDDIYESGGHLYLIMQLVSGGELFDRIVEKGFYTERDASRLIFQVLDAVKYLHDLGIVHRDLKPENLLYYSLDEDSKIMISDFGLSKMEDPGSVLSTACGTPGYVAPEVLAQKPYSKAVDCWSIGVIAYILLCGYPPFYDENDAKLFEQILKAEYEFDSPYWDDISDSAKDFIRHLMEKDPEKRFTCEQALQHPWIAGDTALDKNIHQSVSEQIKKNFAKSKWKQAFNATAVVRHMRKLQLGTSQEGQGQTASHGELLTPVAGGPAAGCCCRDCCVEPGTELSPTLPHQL
Chain of FRK (human) (P42685 whole entry, looked up): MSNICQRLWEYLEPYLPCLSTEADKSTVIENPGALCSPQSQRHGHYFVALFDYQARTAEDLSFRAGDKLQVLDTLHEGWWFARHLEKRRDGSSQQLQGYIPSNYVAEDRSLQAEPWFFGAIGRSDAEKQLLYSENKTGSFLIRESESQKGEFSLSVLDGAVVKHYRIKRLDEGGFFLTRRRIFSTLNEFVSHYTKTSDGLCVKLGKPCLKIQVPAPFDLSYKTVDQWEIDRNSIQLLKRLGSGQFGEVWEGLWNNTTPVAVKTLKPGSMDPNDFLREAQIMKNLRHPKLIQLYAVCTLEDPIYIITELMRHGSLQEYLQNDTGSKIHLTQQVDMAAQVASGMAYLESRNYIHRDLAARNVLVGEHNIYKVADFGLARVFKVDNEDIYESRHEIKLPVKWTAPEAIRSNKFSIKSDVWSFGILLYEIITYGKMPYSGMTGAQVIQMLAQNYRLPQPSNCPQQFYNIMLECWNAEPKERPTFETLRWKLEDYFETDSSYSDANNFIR

As usually defined, the pKd is −log10 of the Kd, conventionally taken in molar units. What is called pIC50 is −log10 of the IC50, conventionally taken in molar units. Read a low pIC50 as a large IC50. With `O=C1NC(=O)/C(=C/c2c[nH]c(=O)c(-c3ccc(N4CCNCC4)nc3)c2)S1`, the kinase still bound, per cent of control on SYK (human) was 100%; at CAMK1 (human), 68%; at MARK3 (human) it was 100%; on PRKG1 (human) it was 100%; on ALK (human), 54%; in [1], 49%. Besides, the kinase still bound, per cent of control on ERBB2 (human) stood at 57%; on TYRO3 (human), 100%; at MUSK (human), 97%; at BRSK1 (human), 100%; on FRK (human) it was 90%; on BLK (human) it was 100%. Besides, the values for the kinase still bound, per cent of control (in assay [3]; at TNNI3K (human)) were 95% and 96%, respectively. Besides, the figures for the pKd at DYRK1A (human), at HIPK2 (human) [2] and on DYRK2 (human) were 8.06, 8.02 and 6.60, respectively. Besides, the figures for the pIC50 against HIPK2 (human) [4] and on HIPK1 (human) were 7.13 and 6.87, respectively.

`CN1C(=O)c2ccccc2N(C)c2nc(Nc3ccc(N4CCC(O)CC4)cc3)ncc21`: the kinase still bound, per cent of control at SYK (human) was determined as 61%; at CAMK1 (human), 100%; on MARK3 (human) it was 60%; on PRKG1 (human) it was 100%; on ALK (human) it was 100%; in assay [1], 3%. Also, the kinase still bound, per cent of control on ERBB2 (human) came out at 99%; at TYRO3 (human), 100%; on MUSK (human), 100%; on BRSK1 (human), 56%; on FRK (human), 70%; at BRAF (human), 94%. For the same compound, the kinase still bound, per cent of control worked out at 100% in [5], 12% at BLK (human), 92% in assay [3] and 100% at TNNI3K (human).

`N=C1NC(=O)/C(=C/c2ccc(-c3cncc4ccccc34)o2)S1`: the results for the kinase still bound, per cent of control on CAMK1 (human) and on BRSK1 (human) were 8.4% and 6.6%, respectively. For the same compound, the values for the pIC50 at AURKC (human) and against AURKB (human) were 6.81 and 7.54, respectively.

The values above are taken from the kinase profiling compilation of Christmann-Franck et al. (2016).
